Measurements taken from US11584742B2 (MASARYKOVA UNIVERZITA, priority 2018, dated 2023).

Assays:
DR-GFP U2OS cells = experiment: HR assay (GFP fluorescence after I-SceI transfection, flow cytometry); type: cell-based; details: Homo sapiens, inhibitor at 25 μM, 72 hours after transfection
Procedure: DR-GFP U2OS cells (Methods in Molecular Biology 2012, 920, 379.) were transfected with 2.5 μg of I-SceI-expressing pCAGGS vector and treated with the inhibitors at 25 μM concentration. 72 hours after the transfection, the cells were trypsinized and resuspended in 3% BSA in PBS. GFP fluorescence detection was carried out using a BD FACSVerse flow cytometer and data analyzed with FlowJo software.

MRE11 = target: T1, MRE11 (Homo sapiens, UniProt P49959); experiment: HTS nuclease assay (cleavage of CY5/BBQ-quenched 5' overhang DNA substrate); type: biochemical; details: in vitro HTS nuclease assay; 18 nM MRE11, 40 nM DNA substrate; analysis at t=4 h
T1 sequence (P49959 1-708): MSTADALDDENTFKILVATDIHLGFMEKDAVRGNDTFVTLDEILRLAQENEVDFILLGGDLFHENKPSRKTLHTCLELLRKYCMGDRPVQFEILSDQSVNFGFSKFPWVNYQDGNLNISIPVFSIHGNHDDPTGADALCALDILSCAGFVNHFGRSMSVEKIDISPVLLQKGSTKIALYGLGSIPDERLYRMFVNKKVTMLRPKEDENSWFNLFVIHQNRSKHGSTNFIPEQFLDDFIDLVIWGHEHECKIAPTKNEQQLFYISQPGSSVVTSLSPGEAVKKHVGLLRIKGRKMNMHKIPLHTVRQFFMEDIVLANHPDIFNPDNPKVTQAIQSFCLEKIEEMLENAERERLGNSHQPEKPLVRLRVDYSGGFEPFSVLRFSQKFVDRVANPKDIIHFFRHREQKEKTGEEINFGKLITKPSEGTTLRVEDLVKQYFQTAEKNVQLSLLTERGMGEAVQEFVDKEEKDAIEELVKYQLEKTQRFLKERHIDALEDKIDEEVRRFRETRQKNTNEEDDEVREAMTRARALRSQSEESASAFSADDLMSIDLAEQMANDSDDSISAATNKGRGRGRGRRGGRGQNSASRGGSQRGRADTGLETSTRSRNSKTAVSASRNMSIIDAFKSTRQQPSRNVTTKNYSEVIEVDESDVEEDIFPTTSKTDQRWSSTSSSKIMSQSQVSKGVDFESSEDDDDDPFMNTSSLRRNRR
Procedure: DNA Substrate Preparation
The DNA substrate is prepared by mixing the oligonucleotides listed below in a 1:1 ratio to reach a final concentration of 6 μM in a buffer containing 50 mM Tris pH 7.5, 100 mM NaCl and 8 mM MgCl2.
This substrate is a 5′ overhang, which is a preferred substrate of MRE11. […] The fluorescence increases upon substrate cleavage by MRE11, when separation of the two labels occur.
The conditions of the assay are as follows:
Total reaction volume: 5 μL
DNA substrate concentration in the reaction: 40 nM
Inhibitor concentration range tested: 7 nM-50 μM
Each plate contains a series of high and low signal control wells, where no compound is added:
High signal: MRE11+DNA substrate
Low signal: DNA substrate only
These are used during data evaluation.
Two extra assay controls:
1) To check whether unwinding of DNA by the compounds alone occurs.
The DNA substrate [CY5+BBQ(650)] is mixed with the compounds with no protein present.
The CY5 single stranded oligo is mixed with the compounds with no protein present.
The layout of the plates is created by the in-house software (CZ-Openscreen Prague) and this information is transferred to the robotic HTS station.
The reaction is started by the addition of DNA and the reaction time is counted from that moment, including a 15 min delay. Ten timepoints are measured:
The assay data analysis was performed at t=4 h. This corresponds to the time when the reaction is close to its maximum.
The data analysis was performed using the in-house software to obtain IC50 for each compound.

Row | IC50 (MRE11) | Structure (SMILES) | inhibition at 25 µM (DR-GFP U2OS cells)
1 | < 2000 nM | N#C/C(=C\c1ccc(O)c(O)c1)C(=O)Nc1nc(-c2ccccc2)c(-c2ccccc2)s1 [Preparative Example 176, (E)-2-cyano-3-(3,4-dihydroxyphenyl)-N-(4,5-diphenylthiazol-2-yl)acrylamide] | > 75%
2 | < 2000 nM | N#C/C(=C\c1ccc(O)c(O)c1)C(=O)Nc1nc(-c2ccc(N3CCOCC3)cc2)cs1 [Preparative Example 178] | 50 to 75%
3 | < 2000 nM | N#C/C(=C\c1ccc(O)c(O)c1)C(=O)Nc1nc(-c2ccc(C(F)(F)F)cn2)cs1 [Preparative Example 179, (E)-2-cyano-3-(3,4-dihydroxyphenyl)-N-(4-(5-(trifluoromethyl)pyridin-2-yl)thiazol-2-yl)acrylamide] | > 75%
4 | < 2000 nM | N#C/C(=C\c1ccc(O)c(O)c1)C(=O)Nc1nc(-c2cccc(C#N)c2)cs1 [Preparative Example 180, (E)-2-cyano-N-(4-(3-cyanophenyl)thiazol-2-yl)-3-(3,4-dihydroxyphenyl)acrylamide] | 50 to 75%
5 | < 2000 nM | CN(C)C(=O)c1ccc(-c2csc(NC(=O)/C(C#N)=C/c3ccc(O)c(O)c3)n2)cc1 [Preparative Example 181, (E)-4(2-(2-cyano-3-(3,4-dihydroxyphenyl)acrylamido)thiazol-4-yl)-N,N-dimethylbenzamide] | < 50%
6 | < 2000 nM | CC(C)(O)c1ccc(-c2csc(NC(=O)/C(C#N)=C/c3ccc(O)c(O)c3)n2)cc1 [Preparative Example 182, (E)-2-cyano-3-(3,4-dihydroxyphenyl)-N-(4-(4-(2-hydroxypropan-2-yl)phenyl)thiazol-2-yl)acrylamide] | 50 to 75%
7 | < 2000 nM | N#C/C(=C\c1ccc(O)c(O)c1)C(=O)Nc1nc(-c2ccc(C#N)s2)cs1 [Preparative Example 183, (E)-2-cyano-N-(4-(5-cyanothiophen-2-yl)thiazol-2-yl)-3-(3,4-dihydroxyphenyl)acrylamide] | < 50%
8 | < 2000 nM | N#C/C(=C\c1ccc(O)c(O)c1)C(=O)Nc1nc(-c2cc(F)cc(F)c2)cs1 [Preparative Example 185, (E)-2-cyano-N-(4-(3,5-difluorophenyl)thiazol-2-yl)-3-(3,4-dihydroxyphenyl)acrylamide] | 50 to 75%
9 | < 2000 nM | N#C/C(=C\c1ccc(O)c(O)c1)C(=O)Nc1nc(-c2cccnn2)cs1 [Preparative Example 186] | < 50%
10 | < 2000 nM | N#C/C(=C\c1ccc(O)c(O)c1)C(=O)Nc1nc(-c2ccc(F)cc2)cs1 [Preparative Example 187, (E)-2-cyano-3-(3,4-dihydroxyphenyl)-N-(4-(4-fluorophenyl)thiazol-2-yl)acrylamide] | > 75%
11 | < 2000 nM | N#C/C(=C\c1ccc(O)c(O)c1)C(=O)Nc1nc(-c2ccncc2)cs1 [Preparative Example 188, (E)-2-cyano-3-(3,4-dihydroxyphenyl)-N-(4-(pyridin-4-yl)thiazol-2-yl)acrylamide] | 50 to 75%
12 | < 2000 nM | COC(=O)c1ccc(-c2csc(NC(=O)/C(C#N)=C/c3ccc(O)c(O)c3)n2)cc1 [Preparative Example 189, Methyl (E)-4-(2-(2-cyano-3-(3,4-dihydroxyphenyl)acrylamido)thiazol-4-yl)benzoate] | 50 to 75%
13 | < 2000 nM | N#C/C(=C\c1ccc(O)c(O)c1)C(=O)Nc1nc2c(s1)CCCC2 [Preparative Example 191] | < 50%
14 | < 2000 nM | Cc1sc(NC(=O)/C(C#N)=C/c2ccc(O)c(O)c2)nc1-c1ccccc1 [Preparative Example 194, (E)-2-cyano-3-(3,4-dihydroxyphenyl)-N-(5-methyl-4-phenylthiazol-2-yl)acrylamide] | 50 to 75%
15 | < 2000 nM | N#C/C(=C\c1ccc(O)c(O)c1)C(=O)Nc1nc(-c2ccccc2)c(Cl)s1 [Preparative Example 195, (E)-N-(5-chloro-4-phenylthiazol-2-yl)-2-cyano-3-(3,4-dihydroxyphenyl)acrylamide] | 50 to 75%
16 | < 2000 nM | N#C/C(=C\c1ccc(O)c(O)c1)C(=O)Nc1nc(-c2ccccc2)c(Br)s1 [Preparative Example 196, (E)-N-(5-bromo-4-phenylthiazol-2-yl)-2-cyano-3-(3,4-dihydroxyphenyl)acrylamide] | 50 to 75%
17 | < 2000 nM | C#Cc1ccc(-c2csc(NC(=O)/C(C#N)=C/c3ccc(O)c(O)c3)n2)cc1 [Preparative Example 197, (E)-2-cyano-3-(3,4-dihydroxyphenyl)-N-(4-(4-ethynylphenyl)thiazol-2-yl)acrylamide] | > 75%
18 | < 2000 nM | COc1ccc(-c2csc(NC(=O)/C(C#N)=C/c3ccc(O)c(O)c3)n2)cc1C1CC1 [Preparative Example 198, (E)-2-cyano-N-(4-(3-cyclopropyl-4-methoxyphenyl)thiazol-2-yl)-3-(3,4-dihydroxyphenyl)acrylamide] | > 75%
19 | < 2000 nM | CC(C)(C)c1csc(NC(=O)/C(C#N)=C/c2ccc(O)c(O)c2)n1 [Preparative Example 199, (E)-N-(4-(tert-butyl)thiazol-2-yl)-2-cyano-3-(3,4-dihydroxyphenyl)acrylamide] | 50 to 75%
20 | 2000 to 10000 nM | N#C/C(=C\c1cnc(O)c(O)c1)C(=O)Nc1nc(-c2ccccc2)cs1 [Preparative Example 200, (E)-2-cyano-3-(5,6-dihydroxypyridin-3-yl)-N-(4-phenylthiazol-2-yl)acrylamide] | < 50%
21 | 2000 to 10000 nM | N#C/C(=C\c1ccc(O)c(Cl)c1)C(=O)Nc1nc(-c2ccccc2)cs1 [Preparative Example 201, (E)-3-(3-chloro-4-hydroxyphenyl)-2-cyano-N-(4-phenylthiazol-2-yl)acrylamide] | 50 to 75%
22 | 2000 to 10000 nM | COc1cc(/C=C(\C#N)C(=O)Nc2nc(-c3ccccc3)cs2)cc(F)c1O [Preparative Example 203, (E)-2-cyano-3-(3-fluoro-4-hydroxy-5-methoxyphenyl)-N-(4-phenylthiazol-2-yl)acrylamide] | < 50%
23 | 2000 to 10000 nM | N#C/C(=C\c1ccc(C(=O)O)cc1)C(=O)Nc1nc(-c2ccccc2)cs1 [Preparative Example 204, (E)-4-(2-cyano-3-oxo-3-((4-phenylthiazol-2-yl)amino)prop-1-en-1-yl)benzoic acid] | < 50%
24 | 2000 to 10000 nM | N#C/C(=C\c1ccc2cn[nH]c2c1)C(=O)Nc1nc(-c2ccccc2)cs1 [Preparative Example 205, (E)-2-cyano-3-(1H-indazol-6-yl)-N-(4-phenylthiazol-2-yl)acrylamide] | < 50%
25 | 2000 to 10000 nM | N#C/C(=C\c1ccccc1F)C(=O)Nc1nc(-c2ccccc2)cs1 [Preparative Example 206, (E)-2-cyano-3-(2-fluorophenyl)-N-(4-phenylthiazol-2-yl)acrylamide] | < 50%
26 | 2000 to 10000 nM | CC(=O)Nc1cccc(/C=C(\C#N)C(=O)Nc2nc(-c3ccccc3)cs2)c1 [Preparative Example 207, 3-(3-acetamidophenyl)-2-cyano-N-(4-phenylthiazol-2-yl)acrylamide] | 50 to 75%
